# Test results taken from US20230146395A1, “Substituted Pyrimidines and Uses Thereof” (Verge Analytics, Inc., priority 2020, published 2023).
# Counter-ions that a name gives are not always drawn.
# Target: T1, Full length human recombinant PIKFYVE (Homo sapiens, UniProt Q9Y2I7)
# T1 construct: Full length human recombinant PIKFYVE; purchased Carna Biosciences (Kobe, Japan); host or cells: baculovirus expression system
# Assay: Inhibition of PIKfyve (microfluidic electrophoresis kinase assay, PI3P/PS substrate)
# Type: biochemical
# Conditions: 12 concentrations
# In short: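 GST-tagged full-length human PIKFYVE (baculovirus; 2 nM) with fluorescent PI3P/PS (1 μM PI3P) and […] in pH 7.5 HEPES with Mg2+/Mn2+, 1% DMSO, 3 h at room temperature. PI(3,5)P product/substrate ratio read by microfluidic electrophoresis; 12-point % inhibition versus no-enzyme and DMSO controls.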
# T1 sequence (Q9Y2I7 whole entry): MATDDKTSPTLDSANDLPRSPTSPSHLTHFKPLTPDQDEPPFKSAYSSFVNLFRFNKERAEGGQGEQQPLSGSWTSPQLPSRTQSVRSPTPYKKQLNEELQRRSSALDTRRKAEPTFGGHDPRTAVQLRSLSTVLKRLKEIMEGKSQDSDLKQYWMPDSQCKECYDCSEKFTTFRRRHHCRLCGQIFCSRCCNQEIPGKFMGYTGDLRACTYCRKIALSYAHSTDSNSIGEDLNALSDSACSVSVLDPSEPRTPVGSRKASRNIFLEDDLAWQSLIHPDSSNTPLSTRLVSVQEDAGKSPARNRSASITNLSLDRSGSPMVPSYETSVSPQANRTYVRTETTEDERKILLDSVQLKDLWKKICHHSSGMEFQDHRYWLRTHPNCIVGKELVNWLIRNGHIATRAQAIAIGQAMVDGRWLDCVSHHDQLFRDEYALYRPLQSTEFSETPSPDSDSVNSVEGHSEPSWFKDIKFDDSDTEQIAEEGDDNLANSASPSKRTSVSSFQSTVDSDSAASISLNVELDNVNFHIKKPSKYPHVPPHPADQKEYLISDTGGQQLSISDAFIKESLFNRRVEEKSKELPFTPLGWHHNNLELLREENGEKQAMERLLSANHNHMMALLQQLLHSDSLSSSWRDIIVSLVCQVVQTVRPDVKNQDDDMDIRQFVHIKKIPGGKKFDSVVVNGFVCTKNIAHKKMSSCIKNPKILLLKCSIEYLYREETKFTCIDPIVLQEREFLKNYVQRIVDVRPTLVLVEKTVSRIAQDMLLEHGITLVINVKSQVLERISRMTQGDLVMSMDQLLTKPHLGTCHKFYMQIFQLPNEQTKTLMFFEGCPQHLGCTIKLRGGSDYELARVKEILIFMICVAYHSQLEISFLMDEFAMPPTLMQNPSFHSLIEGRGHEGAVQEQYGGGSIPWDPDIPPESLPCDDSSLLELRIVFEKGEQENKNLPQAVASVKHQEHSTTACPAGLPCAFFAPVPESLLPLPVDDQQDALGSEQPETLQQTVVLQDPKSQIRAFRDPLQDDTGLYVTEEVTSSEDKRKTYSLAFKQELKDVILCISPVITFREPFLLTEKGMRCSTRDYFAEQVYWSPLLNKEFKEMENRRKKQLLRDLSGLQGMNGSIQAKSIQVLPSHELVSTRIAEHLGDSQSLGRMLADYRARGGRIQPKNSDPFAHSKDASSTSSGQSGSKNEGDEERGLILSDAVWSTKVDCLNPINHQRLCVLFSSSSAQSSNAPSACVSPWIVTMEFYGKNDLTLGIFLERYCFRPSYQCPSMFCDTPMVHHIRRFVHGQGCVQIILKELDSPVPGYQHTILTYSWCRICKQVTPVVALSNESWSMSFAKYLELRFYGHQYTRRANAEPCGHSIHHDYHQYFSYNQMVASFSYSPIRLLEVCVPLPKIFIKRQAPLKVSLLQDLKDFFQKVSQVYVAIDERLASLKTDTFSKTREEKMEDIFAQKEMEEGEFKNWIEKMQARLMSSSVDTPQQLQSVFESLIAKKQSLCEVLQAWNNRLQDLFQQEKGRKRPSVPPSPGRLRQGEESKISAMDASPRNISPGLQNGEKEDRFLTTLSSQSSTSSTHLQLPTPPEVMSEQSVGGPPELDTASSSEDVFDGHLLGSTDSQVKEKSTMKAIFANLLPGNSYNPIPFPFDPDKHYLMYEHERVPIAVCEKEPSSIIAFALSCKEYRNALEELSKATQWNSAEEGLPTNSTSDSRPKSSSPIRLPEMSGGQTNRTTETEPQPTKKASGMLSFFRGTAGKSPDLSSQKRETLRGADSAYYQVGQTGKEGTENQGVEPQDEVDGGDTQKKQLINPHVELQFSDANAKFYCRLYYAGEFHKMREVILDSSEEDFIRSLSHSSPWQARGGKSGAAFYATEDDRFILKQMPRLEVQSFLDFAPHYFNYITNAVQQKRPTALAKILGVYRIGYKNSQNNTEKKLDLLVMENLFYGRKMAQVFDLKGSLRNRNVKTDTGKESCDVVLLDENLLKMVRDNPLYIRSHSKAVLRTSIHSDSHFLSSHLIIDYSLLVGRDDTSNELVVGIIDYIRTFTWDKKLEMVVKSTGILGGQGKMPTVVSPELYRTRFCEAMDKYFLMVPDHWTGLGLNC
row,SMILES,IC50
1,"Cc1cccc(-c2ccn(-c3nc(N4CCOCC4)c4oc(-c5ccn(C)n5)cc4n3)n2)c1 [Compound 189, 6-(1-methylpyrazol-3-yl)-4-morpholino-2-[3-(m-tolyl)pyrazol-1-yl]furo[3,2-d]pyrimidine]",0.0008 µM
2,"c1cc(-c2cc3nc(Nc4cc(CC5CC5)n[nH]4)nc(N4CCOCC4)c3o2)ccn1 [Compound 69, N-(3-(cyclopropylmethyl)-1H-pyrazol-5-yl)-4-morpholino-6-(pyridin-4-yl)furo[3,2-d]pyrimidin-2-amine hydrochloride]",0.338 µM
3,"Cc1cccc(-c2cc(Nc3nc(N4CCOCC4)c4oc(C5CCN(C)C5)cc4n3)[nH]n2)c1 (stereo not shown) [Compound 39, 6-(1-methylpyrrolidin-3-yl)-4-morpholino-N-(3-(m-tolyl)-1H-pyrazol-5-yl)furo[3,2-d]pyrimidin-2-amine hydrochloride]",2.56 µM
4,"CCNC(=O)c1cc2nc(-n3ccc(-c4ccccc4)n3)nc(N3CCOCC3)c2o1 [Compound 152, N-ethyl-4-morpholino-2-(3-phenyl-1H-pyrazol-1-yl)furo[3,2-d]pyrimidine-6-carboxamide]",0.306 µM
5,"CON(C)C(=O)c1cc2nc(Nc3cc(-c4ccccc4)[nH]n3)nc(N3CCOCC3)c2o1 [Compound 139, N-methoxy-N-methyl-4-morpholino-2-((5-phenyl-1H-pyrazol-3-yl)amino)furo[3,2-d]pyrimidine-6-carboxamide]",0.022 µM
6,"c1ccc(-c2ccn(-c3nc(N4CCOCC4)c4oc(-c5ccccn5)cc4n3)n2)cc1 [Compound 155, 4-morpholino-2-(3-phenylpyrazol-1-yl)-6-(2-pyridyl)furo[3,2-d]pyrimidine]",0.0706 µM
7,Cc1cccc(-c2cc(Nc3nc(N4CCOCC4)c4oc(C5CCCN(C)C5)cc4n3)[nH]n2)c1 (stereo not shown) [Compound 36],0.037 µM
8,"CNC(=O)c1cc2nc(Nc3cc(CC4CC4)n[nH]3)nc(N3CCOCC3)c2o1 [Compound 79, 2-((5-(cyclopropylmethyl)-1H-pyrazol-3-yl)amino)-N-methyl-4-morpholinofuro[3,2-d]pyrimidine-6-carboxamide, hydrogen chloride]",≥ 10 µM
9,"Cc1cccc(-c2ccn(-c3nc(N4CCOCC4)c4oc(-c5ccccn5)cc4n3)n2)n1 [Compound 187, 2-[3-(6-methyl-2-pyridyl)pyrazol-1-yl]-4-morpholino-6-(2-pyridyl)furo[3,2-d]pyrimidine]",2.39 µM
10,"Cc1cc(-c2oc3c(N4CCOCC4)nc(-n4ccc(-c5ccccc5)n4)nc3c2C)[nH]n1 [Compound 182, 7-methyl-6-(3-methyl-1H-pyrazol-5-yl)-4-morpholino-2-(3-phenylpyrazol-1-yl)furo[3,2-d]pyrimidine]",0.0842 µM
11,"CC(C)c1cc(Nc2nc(N3CCOCC3)c3oc(-c4ccncc4)cc3n2)[nH]n1 [Compound 77, N-(5-isopropyl-1H-pyrazol-3-yl)-4-morpholino-6-(pyridin-4-yl)furo[3,2-d]pyrimidin-2-amine, hydrogen chloride]",0.175 µM
12,O=C(NC1CC1)c1cc2nc(Nc3cc(-c4ccccc4)[nH]n3)nc(N3CCOCC3)c2o1 [Compound 59],0.0043 µM
13,"Cc1ccnc(-c2cc(Nc3nc(N4CCOCC4)c4oc(-c5ccncc5)cc4n3)[nH]n2)c1 [Compound 21, N-[5-(4-methyl-2-pyridyl)-1H-pyrazol-3-yl]-4-morpholino-6-(4-pyridyl)fnro[3,2-d]pyrimidin-2-amine, hydrogen chloride]",0.027 µM
14,"CN1CCC(NC(=O)c2cc3nc(-n4ccc(-c5ccccc5)n4)nc(N4CCOCC4)c3o2)CC1 [Compound 151, N-(1-methyl-4-piperidyl)-4-morpholino-2-(3-phenylpyrazol-1-yl)furo[3,2-d]pyrimidine-6-carboxamide]",0.446 µM
15,"O=C(NC1CCOC1)c1cc2nc(-n3cc(-c4ccccc4)cn3)nc(N3CCOCC3)c2o1 (stereo not shown) [Compound 172, 4-morpholino-2-(4-phenylpyrazol-1-yl)-N-tetrahydrofuran-3-yl-furo[3,2-d]pyrimidine-6-carboxamide]",0.0378 µM
16,"O=C(NC1CC1)c1cc2nc(-n3ccc(-c4ccccc4)n3)nc(N3CCOCC3)c2o1 [Compound 153, N-cyclopropyl-4-morpholino-2-(3-phenylpyrazol-1-yl)furo[3,2-d]pyrimidine-6-carboxamide]",0.024 µM
17,"c1cncc(-c2cc3nc(Nc4cc(-c5ccncc5)n[nH]4)nc(N4CCOCC4)c3o2)c1 [Compound 31, 4-morpholino-6-(3-pyridyl)-N-[5-(4-pyridyl)-1H-pyrazol-3-yl]furo[3,2-d]pyrimidin-2-amine, hydrogen chloride]",0.369 µM
18,"COc1cccc(-c2ccn(-c3nc(N4CCOCC4)c4oc(-c5ccccn5)cc4n3)n2)c1 [Compound 199, 2-[3-(3-methoxyphenyl)pyrazol-1-yl]-4-morpholino-6-(2-pyridyl)furo[3,2-d]pyrimidine]",0.0368 µM
19,"FC(F)(F)Oc1cccc(-c2cc(Nc3nc(N4CCOCC4)c4oc(-c5ccncc5)cc4n3)[nH]n2)c1 [Compound 25, 4-morpholino-6-(4-pyridyl)-N-[5-[3-(trifluoromethoxy)phenyl]-1H-pyrazol-3-yl]furo[3,2-d]pyrimidin-2-amine, hydrogen chloride]",0.956 µM
20,COCCN(C)Cc1cc2nc(Nc3cc(-c4ccccc4)n[nH]3)nc(N3CCOCC3)c2o1 [Compound 17],0.303 µM
21,"c1ccc(-c2ccn(-c3nc(N4CCOCC4)c4oc(-c5cccnc5)cc4n3)n2)cc1 [Compound 156, 4-morpholino-2-(3-phenyl-1H-pyrazol-1-yl)-6-(pyridin-3-yl)furo[3,2-d]pyrimidine]",0.152 µM
22,"Clc1cc2nc(Nc3cc(-c4ccccc4)n[nH]3)nc(N3CCOCC3)c2o1 [Compound 11, 6-chloro-4-morpholino-N-(5-phenyl-1H-pyrazol-3-yl)furo[3,2-d]pyrimidin-2-amine hydrochloride]",0.0544 µM
23,"c1cc(-c2cc3nc(Nc4cc(-c5ccsc5)n[nH]4)nc(N4CCOCC4)c3o2)ccn1 [Compound 76, 4-morpholino-6-(pyridin-4-yl)-N-(5-(thiophen-3-yl)-1H-pyrazol-3-yl)furo[3,2-d]pyrimidin-2-amine, hydrogen chloride]",0.0011 µM
24,"Cc1cccc(-c2ccn(-c3nc(N4CCOCC4)c4oc(-c5cnn(C)c5)cc4n3)n2)c1 [Compound 205, 6-(1-methylpyrazol-4-yl)-4-morpholino-2-[3-(m-tolyl)pyrazol-1-yl]furo[3,2-d]pyrimidine]",0.0013 µM
25,"c1ccn2nc(Nc3nc(N4CCOCC4)c4oc(-c5ccncc5)cc4n3)cc2c1 [Compound 51, 4-morpholino-N-pyrazolo[1,5-a]pyridin-2-yl-6-(4-pyridyl)furo[3,2-d]pyrimidin-2-amine, hydrogen chloride]",0.088 µM
26,"Cc1cc(-c2cc3nc(-n4ccc(-c5ccccc5)n4)nc(N4CCOCC4)c3o2)sn1 [Compound 211, 6-(3-methylisothiazol-5-yl)-4-morpholino-2-(3-phenylpyrazol-1-yl)furo[3,2-d]pyrimidine]",0.0208 µM
27,"O=C(c1cc2nc(-n3cc(-c4ccccc4)cn3)nc(N3CCOCC3)c2o1)N1CCC1 [Compound 67, azetidin-1-yl(4-morpholino-2-(4-phenyl-1H-pyrazol-1-yl)furo[3,2-d]pyrimidin-6-yl)methanone]",0.928 µM
28,"CN(C)CCCNC(=O)c1cc2nc(-n3cc(-c4ccccc4)cn3)nc(N3CCOCC3)c2o1 [Compound 168, N-(3-(dimethylamino)propyl)-4-morpholino-2-(4-phenyl-1H-pyrazol-1-yl)furo[3,2-d]pyrimidine-6-carboxamide]",0.0621 µM
